The target in one data set is human V2R (Homo sapiens (Human), UniProt P30518). Kind of data set: Inhibition activity on human V2R (cAMP HTRF assay, HEK293/human V2R pool cells). It counts as cell-based. Particulars: vasopressin. The procedure: The inhibition effect of the compounds of the present invention on the activity of human V2R protein expressed in HEK293/human V2R cells was determined by the following experimental method:
The pcDNA3.1-V2R plasmid was transferred into HEK293 cells with the Lipofectamine® 3000 transfection reagent; G418 was added on the next day, and the HEK293/human V2R pool cell lines were obtained.
HEK293/human V2R pool cells were dissociated with the cell dissociation solution (enzyme-free), thereby dissociating the cells from the cell culture dish into individual cells. Then the cell solution was blown well, and centrifuged to remove the supernatant. The cells were resuspended in the test buffer 1 (1×HBSS+20 mM HEPES+0.1% BSA) and counted. The cell density was adjusted to 1250 cells/5 μl, i.e., 2.5*10^5/ml.
The compounds were formulated into a series of concentrations of 20 mM, 6.67 mM, 2.22 mM, 0.74 mM, 0.25 mM, 0.08 mM, 27.4 μM, 9.14 μM, 3.05 μM, 1.02 μM, 0.34 μM and 0 μM (DMSO) with pure DMSO. The compounds were then diluted into a 4-fold working concentration solution with the test buffer 2 (test buffer 1+1 mM IBMX).
Agonist: 460 μM vasopressin was used as the mother liquor, which was formulated at 2 μM with DMSO, and then diluted to 0.5 nM with the test buffer 2.
Standards: The first point was 20 μl of a stock solution (2848 nM), which was diluted successively to a total of eleven concentrations in a 4-fold concentration gradient with the test buffer 1 from the second point.
1. The well-mixed cells were added to a 384-well plate (5 μl/well) without changing the tip.
2. The test compounds and positive compound formulated were added (2.5 μl/well), and the tips were changed.
3. The plate was centrifuged at 1000 rpm for 1 min, shaken for 30 sec to mix well, and incubated at room temperature for 30 min.
4. The standard curve wells were added with the test buffer 2 (5 μl/well).
5. The formulated agonist was added (2.5 μl/well), and the tips were changed; the plate was centrifuged at 1000 rpm for 1 min, shaken for 30 sec to mix well, and incubated at room temperature for 30 min.
6. cAMP-d2 (a component in the cAMP dynamic 2 kit) and Anti-cAMP-Eu-Cryptate (a component in the cAMP dynamic 2 kit) were formulated in the dark, which were then mixed well with cAMP lysate (a component in the cAMP dynamic 2 kit) in a ratio of 1:4. Each well was added with the formulated cAMP-d2 solution (5 μl/well), followed by addition of Anti-cAMP-Eu-Cryptate (5 μl/well). The plate was shaken for 30 sec to mix well, and incubated in the dark at room temperature for 1 h.
The HTRF Signals were Read by the PheraStar Multi-Function Microplate Reader.
The data in this test was processed using the data processing software Graphpad Prism.
The inhibition activity of the compounds of the present invention on human V2R was determined by the above test, and the IC50 values obtained are shown in Table 4.
A general note: In TR-FRET formats the signal depends on donor and acceptor labels being close together.

Data set [1] in a line: Pharmacokinetics assay in rats after intragastrical administration. It counts as in vivo, SD rats. The following applies: Sprague-Dawley, rat, plasma, po, 30 mg/kg, intragastric, male rats; for Vd/F: read-out: Apparent distribution volume Vz/F; for AUC: read-out: Area under curve AUC; for CL/F: read-out: Clearance CLz/F; for half-life: read-out: Half-life T1/2 (converted); for Cmax: read-out: Plasma concentration Cmax; for MRT: read-out: Residence time MRT. The method, boiled down: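 Fasted male SD rats (3 per compound) received 30.0 mg/kg by gavage […] in 2.5% DMSO/97.5% of 10% solutol HS-15. Orbital blood was taken pre-dose and 0.5-24 h; plasma was acetonitrile-precipitated with camptothecin internal standard and quantified by LC/MS/MS.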

Another data set has as its target human OTR (Homo sapiens, UniProt P30559). Briefly: Inhibition activity on human OTR (Fluo-4 calcium assay, HEK293/human OTR stably transfected cells). It counts as cell-based. Particulars: oxytocin 3 nM. An outline of the steps:
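HEK293 cells stably expressing human OTR, loaded with Fluo-4 for 30 min at 37 °C, were preincubated 10 min at room temperature with compound (stocks 10^1–10^6 nM). Oxytocin (3 nM as added) then triggered calcium signal, read immediately at 494/516; IC50 fitted from fluorescence versus concentration.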

Molecules are shown by their SMILES.

Chain of human V2R (P30518 whole entry): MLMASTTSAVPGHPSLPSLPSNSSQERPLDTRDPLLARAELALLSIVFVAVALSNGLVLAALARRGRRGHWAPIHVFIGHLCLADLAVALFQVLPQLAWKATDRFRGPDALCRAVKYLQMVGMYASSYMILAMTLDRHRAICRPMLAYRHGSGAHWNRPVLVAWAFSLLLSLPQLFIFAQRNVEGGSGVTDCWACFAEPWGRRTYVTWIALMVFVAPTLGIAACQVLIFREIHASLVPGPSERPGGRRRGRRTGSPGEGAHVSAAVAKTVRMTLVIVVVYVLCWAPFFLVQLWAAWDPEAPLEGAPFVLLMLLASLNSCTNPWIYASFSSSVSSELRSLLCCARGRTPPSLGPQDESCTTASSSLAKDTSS

As a reminder, the IC50 is the concentration that gives 50% inhibition. In general, AUC refers to the area under the concentration-time curve, a measure of exposure. A word on the MRT: it is a mean duration of stay, worked out from the concentration-time curve. For the compound `COCc1nnc(N2CC(c3cccc4cc(F)ccc34)C2)n1-c1ccc(OC)nc1` [Example 2, 5-(3-(3-(6-Fluoronaphthalen-1-yl)azetidin-1-yl)-5-(methoxymethyl)-4H-1,2,4-triazol-4-yl)-2-methoxypyridine], it took 4900 nM to reach half-maximal inhibition against human V2R (IC50). In data set [1], the Vd/F stood at 5.29 ± 3.44 L/kg, the exposure (AUC) turned out to be 8580 ± 3560 ng·h/mL, the CL/F is 63.8 ± 26.5 mL/min/kg and the half-life is 0.91 ± 0.25 h. In data set [1], the Cmax is 3930 ± 3030 ng/mL and the MRT worked out at 2.46 ± 1.44 h. For the same compound, the IC50 on human OTR was 2 nM.

At human V2R, `COCc1nnc(N2CC(n3cc(C)c4cc(F)ccc43)C2)n1-c1ccc(OC)nc1` [Example 17, 5-Fluoro-1-(1-(5-(methoxymethyl)-4-(6-methoxypyridin-3-yl)-4H-1,2,4-triazol-3-yl)azetidin-3-yl)-3-methyl-1H-indole] came in with an IC50 of 10900 nM. Moreover, in data set [1], the Vd/F was 13.7 ± 3.83 L/kg, the AUC amounted to 11200 ± 4390 ng·h/mL, the CL/F came out at 48 ± 19 mL/min/kg and the half-life was 3.35 ± 0.399 h. Further, in data set [1], the Cmax is 2020 ± 580 ng/mL and the mean residence time MRT was 5.08 ± 0.552 h. The half-maximal inhibitory concentration (IC50) at human OTR turned out to be 64 nM.

For the origin of these results see patent publication US10889569B2, “Condensed ring group azacyclobutyl triazole derivative, preparation method therefor and use thereof in medicine” (Jiangsu Hengrui Medicine Co., Ltd., priority 2016, dated 2021).
